The values below come from PubChem BioAssay (NCI).

The structures appear in SMILES notation.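 Growth conditions: 96-well plates. Treatment: test compound, 48 hours, 5 concentrations. Analysis: linear interpolation between bracketing concentrations; unreached endpoints set to highest concentration. Here, GI50 denotes the concentration required for 50% inhibition of growth. TGI denotes the concentration required for complete inhibition of growth.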

Among the test systems are BT-549 breast; HCC-2998 colon; HOP-62 NSCLC; HOP-92 NSCLC; HT29 colon; MCF7 breast; MDA-MB-435; OVCAR-8 ovarian; SF-268 CNS; UACC-62 melanoma.
What all share (experiment): growth of human tumour cells (NCI), 48 h

Take `COc1ccc(-c2nn(-c3cccc(Cl)c3)cc2-c2cc(-c3cccs3)[nH]c(=S)n2)cc1`: the GI50 in the assay on BT-549 breast is 3.18 µM; with HCC-2998 colon, 4.03 µM; with HOP-62 NSCLC it was 7.14 µM; in the assay on HOP-92 NSCLC it was 2.2 µM; in the assay on HT29 colon, 3.82 µM; in the assay with MCF7 breast, 3.02 µM. Besides, the GI50 in the assay on MDA-MB-435 is 3.13 µM; in the assay with OVCAR-8 ovarian, 3.15 µM; in the assay with SF-268 CNS it was 4.52 µM; in the assay on UACC-62 melanoma, 2.78 µM. Also, the TGI in the assay on BT-549 breast was 15.9 µM; in the assay on HCC-2998 colon, 16.4 µM; in the assay with HOP-62 NSCLC, 22.1 µM; in the assay on HOP-92 NSCLC, 10.8 µM; with HT29 colon, 13 µM; with MCF7 breast, 33.4 µM. The TGI in the assay on MDA-MB-435 is 19 µM; with OVCAR-8 ovarian it was greater than 100 µM; in the assay on SF-268 CNS, 73.6 µM; in the assay on UACC-62 melanoma, 19.2 µM.

Turning to `C=CCN=c1sc2c(n1NC(=O)c1cc3ccc1CCc1ccc(cc1)CC3)C(=O)c1ccccc1C2=O`, the GI50 with BT-549 breast was 1.53 µM; with HCC-2998 colon, 1.62 µM; in the assay with HOP-62 NSCLC, 1.96 µM; in the assay with HOP-92 NSCLC, 1.56 µM; in the assay on HT29 colon it was 3.09 µM; with MCF7 breast, 1.23 µM. Also, the GI50 was 0.194 µM with MDA-MB-435, 2.13 µM with OVCAR-8 ovarian, 1.68 µM in the assay with SF-268 CNS and 1.63 µM in the assay on UACC-62 melanoma. Further, the TGI is 2.91 µM in the assay with BT-549 breast; 3.14 µM in the assay on HCC-2998 colon; 4.85 µM in the assay on HOP-62 NSCLC; 4.19 µM in the assay on HOP-92 NSCLC; greater than 100 µM in the assay with HT29 colon; 3.36 µM with MCF7 breast. Besides, the TGI turned out to be 0.363 µM in the assay on MDA-MB-435, 11.2 µM with OVCAR-8 ovarian, 4.48 µM in the assay on SF-268 CNS and 3.91 µM in the assay with UACC-62 melanoma.

Take `O=C1C(Cl)=C(Nc2cccc(F)c2)C(=O)N1Cc1ccc(Cl)cc1`: the GI50 in the assay with BT-549 breast is 0.841 µM; with HCC-2998 colon it was 0.935 µM; in the assay with HOP-62 NSCLC it was 0.974 µM; in the assay on HOP-92 NSCLC, 11.4 µM; in the assay on HT29 colon, 0.911 µM; with MCF7 breast it was 1.06 µM. Besides, the GI50 was 0.665 µM in the assay on MDA-MB-435, 0.759 µM with OVCAR-8 ovarian and 1.43 µM in the assay on SF-268 CNS. The TGI with BT-549 breast turned out to be 13.4 µM; in the assay with HCC-2998 colon, 4.88 µM; in the assay on HOP-62 NSCLC, 7.19 µM; in the assay with HOP-92 NSCLC, 26.2 µM; in the assay on HT29 colon it was 12.9 µM; in the assay on MCF7 breast, 7.91 µM. Further, the TGI with MDA-MB-435 came out at 2.3 µM; in the assay with OVCAR-8 ovarian, 8.83 µM; in the assay with SF-268 CNS it was 8.07 µM; in the assay with UACC-62 melanoma, 2.48 µM.

Take `O=C(Oc1cccc(F)c1OC(=O)c1cccc(O)c1)c1cccc(O)c1`: the GI50 with BT-549 breast was 24.4 µM; with HCC-2998 colon, 27.5 µM; in the assay with HOP-62 NSCLC, 50.7 µM; in the assay on HOP-92 NSCLC, 46.6 µM; in the assay on HT29 colon it was 41.8 µM; with MCF7 breast, 34.9 µM. For the same molecule, the GI50 in the assay with MDA-MB-435 is 66.7 µM; in the assay with OVCAR-8 ovarian, 22.8 µM; with SF-268 CNS, 11.2 µM; with UACC-62 melanoma, 40.8 µM. In addition, the TGI was greater than 100 µM with BT-549 breast; 84.5 µM in the assay on HCC-2998 colon; greater than 100 µM in the assay on HOP-62 NSCLC; greater than 100 µM in the assay on HOP-92 NSCLC; greater than 100 µM in the assay with HT29 colon; greater than 100 µM in the assay with MCF7 breast. For the same molecule, the TGI in the assay with MDA-MB-435, in the assay with OVCAR-8 ovarian, with SF-268 CNS and in the assay with UACC-62 melanoma was greater than 100 µM in each case.

For the molecule `CC(=O)NC1C(OC[C@@H](CC(=O)N[C@@H](CC(=O)O)CC(=O)N[C@H](CC(=O)N[C@@H](CCCN)CC(=O)N[C@@H](CCCN)CC(=O)N[C@H](CC(N)=O)C(C)C)C(C)C)NC(=O)C[C@@H](N)C(C)C)OC(CO)C(O)C1O` (stereo partly drawn), the GI50 with BT-549 breast, in the assay with HCC-2998 colon, in the assay with HOP-62 NSCLC, in the assay on HOP-92 NSCLC, in the assay with HT29 colon and in the assay with MCF7 breast was greater than 100 µM each time. The GI50 in the assay with MDA-MB-435, in the assay with OVCAR-8 ovarian, with SF-268 CNS and with UACC-62 melanoma was greater than 100 µM each time. For the same molecule, the TGI in the assay with BT-549 breast, in the assay on HCC-2998 colon, in the assay with HOP-62 NSCLC, in the assay with HOP-92 NSCLC, in the assay on HT29 colon and in the assay on MCF7 breast was greater than 100 µM in each case. Also, the TGI in the assay on MDA-MB-435, in the assay with OVCAR-8 ovarian, in the assay with SF-268 CNS and in the assay with UACC-62 melanoma was greater than 100 µM each time.

Regarding `CCN1C(=O)N(CC)C2C1NN=c1s/c(=C\c3cccc(F)c3)c(=O)n12` (stereo not drawn), the GI50 was 0.209 µM in the assay on BT-549 breast; 0.223 µM with HCC-2998 colon; 0.598 µM with HOP-62 NSCLC; 1.44 µM in the assay with HOP-92 NSCLC; 0.0859 µM in the assay on HT29 colon; 0.0392 µM in the assay with MCF7 breast. In addition, the GI50 in the assay on MDA-MB-435 is 0.0271 µM; with OVCAR-8 ovarian it was 0.345 µM; in the assay on SF-268 CNS it was 2.61 µM; in the assay with UACC-62 melanoma it was 0.0539 µM. The TGI with HCC-2998 colon is greater than 65.6 µM; in the assay on HOP-62 NSCLC it was greater than 100 µM; with HOP-92 NSCLC, greater than 79.8 µM; in the assay on HT29 colon it was greater than 100 µM; in the assay with MCF7 breast it was greater than 100 µM; in the assay with MDA-MB-435 it was 0.0833 µM. The TGI in the assay with OVCAR-8 ovarian, in the assay on SF-268 CNS and in the assay with UACC-62 melanoma was greater than 100 µM each time.

On to `CCOC(=O)c1c(C)nc2c(c1N)CC(=O)N2Cc1ccc(OC)cc1`, for which the GI50 in the assay with BT-549 breast was 6.3 µM; in the assay with HCC-2998 colon, greater than 100 µM; with HOP-62 NSCLC, 2.1 µM; in the assay with HOP-92 NSCLC, 2.29 µM; in the assay with HT29 colon it was greater than 100 µM; in the assay on MCF7 breast it was greater than 100 µM. Further, the GI50 in the assay with MDA-MB-435 is greater than 100 µM; in the assay on OVCAR-8 ovarian, 5.42 µM; with SF-268 CNS, 4.29 µM; with UACC-62 melanoma it was 34.1 µM. The TGI with BT-549 breast was greater than 100 µM; in the assay on HCC-2998 colon, greater than 100 µM; in the assay with HOP-62 NSCLC it was 5.97 µM; with HOP-92 NSCLC, 6.5 µM; in the assay with HT29 colon it was greater than 100 µM; in the assay with MCF7 breast, greater than 100 µM. Moreover, the TGI with MDA-MB-435, in the assay with OVCAR-8 ovarian, with SF-268 CNS and in the assay on UACC-62 melanoma was greater than 100 µM in each case.
